Test results: ChEMBL document CHEMBL5727399, “Ectonucleotidase inhibitors and methods of use thereof” (2019)
“And” between values parts separate entries of the source, which are not always exact repeats. Equal entries are not always repeated.

Molecular target: 5'-nucleotidase (Homo sapiens, UniProt P21589)
Experiment: The concentration of inorganic phosphate was determined using a phosphate standard curve.

5'-nucleotidase, sequence (P21589 whole entry): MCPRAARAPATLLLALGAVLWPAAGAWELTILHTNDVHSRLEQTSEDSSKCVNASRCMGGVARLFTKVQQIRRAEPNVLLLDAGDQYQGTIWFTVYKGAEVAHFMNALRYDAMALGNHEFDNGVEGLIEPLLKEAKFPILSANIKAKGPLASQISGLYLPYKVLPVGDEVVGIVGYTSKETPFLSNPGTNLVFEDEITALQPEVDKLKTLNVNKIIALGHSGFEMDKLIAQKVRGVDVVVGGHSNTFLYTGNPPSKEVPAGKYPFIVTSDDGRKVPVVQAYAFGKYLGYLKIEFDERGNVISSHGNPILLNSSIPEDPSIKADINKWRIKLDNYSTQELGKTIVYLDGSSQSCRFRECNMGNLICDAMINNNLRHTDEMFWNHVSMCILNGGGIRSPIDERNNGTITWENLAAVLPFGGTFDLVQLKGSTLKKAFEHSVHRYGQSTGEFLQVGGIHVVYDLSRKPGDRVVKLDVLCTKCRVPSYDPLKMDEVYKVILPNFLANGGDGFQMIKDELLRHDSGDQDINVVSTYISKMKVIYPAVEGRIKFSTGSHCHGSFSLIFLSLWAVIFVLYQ

`Nc1nc(Cl)nc2c1ncn2[C@H]1C[C@H](O)[C@@H](COC(C(=O)O)C(=O)O)O1` and `[N-]=[N+]=N[C@H]1[C@@H](O)[C@H](n2cnc3c(N)nc(Cl)nc32)O[C@@H]1COC(C(=O)O)C(=O)O` cannot be ordered by IC50: > 50000 nM for the first, > 50000 nM for the second.

`N#Cc1cccc(CC(OC[C@H]2O[C@@H](n3cnc4c(N)nc(N=[N+]=[N-])nc43)[C@@H](F)[C@@H]2O)(C(=O)O)C(=O)O)c1` and `N#Cc1ccc(CC(OC[C@H]2O[C@@H](n3cnc4c(N)nc(Cl)nc43)[C@@H](F)[C@@H]2O)(C(=O)O)C(=O)O)cc1F` are within 1.5-fold of each other in IC50: 1280 nM for the first, 887 nM for the second.

Compared with `Nc1nc(Cl)nc2c1ncn2[C@@H]1O[C@H](COC(Cc2ccc(-c3ccccc3)cc2)(C(=O)O)C(=O)O)[C@@H](O)[C@@H]1F`, `Nc1nc(Cl)nc2c1ncn2[C@@H]1O[C@H](COC(CC(=O)O)(C(=O)O)C(=O)O)[C@@H](O)[C@@H]1F` is 88-fold higher in IC50: 29 nM for the first, 2560 nM for the second. The first is the more potent here.

`Nc1nc(Cl)nc2c1ncn2[C@@H]1O[C@H](COC(CCCCO)(C(=O)O)C(=O)O)[C@@H](O)[C@@H]1F` and `N#CCC(OC[C@H]1O[C@@H](n2cnc3c(N)nc(Cl)nc32)[C@@H](F)[C@@H]1O)(C(=O)O)C(=O)O` are within 1.5-fold of each other in IC50: 1890 nM for the first, 1510 nM for the second.

Going from `Nc1nc(Cl)nc2c1ncn2[C@@H]1O[C@H](COC(Cc2cnc(C(=O)O)s2)(C(=O)O)C(=O)O)[C@@H](O)[C@@H]1F` to `Nc1nc(Cl)nc2c1ncn2[C@@H]1O[C@H](COC(CC(=O)O)C(=O)O)[C@@H](O)[C@@H]1F` (some centres not stated), the IC50 rises from 602 nM to > 50000 nM.

`O=C(O)C(OC[C@H]1O[C@@H](n2cnc3c(NCc4ccccc4)nc(Cl)nc32)[C@@H](F)[C@@H]1O)C(=O)O` and `CNC(=O)C(OC[C@H]1O[C@@H](n2cnc3c(N)nc(Cl)nc32)[C@@H](F)[C@@H]1O)P(=O)(O)O` (some centres not stated) are within 1.5-fold of each other in IC50: 8780 nM for the first, 12000 nM for the second.

`CCOC(=O)C(Cc1ccc(OC(F)(F)F)cc1)(OC[C@H]1O[C@@H](n2cnc3c(N)nc(Cl)nc32)[C@@H](F)[C@@H]1O)C(=O)O` (some centres not stated) showed an IC50 of 718 nM.

In the case of `COC(=O)C(Cc1ccc(-c2ccccc2)cc1)(OC[C@H]1O[C@@H](n2cnc3c(N)nc(Cl)nc32)[C@@H](F)[C@@H]1O)C(=O)O` (single isomer, unassigned), the IC50 is reported as 2860 nM and 3430 nM.
`CCOC(=O)C(OC[C@H]1O[C@@H](n2cnc3c(NC(=O)OC(C)(C)C)nc(Cl)nc32)[C@@H](F)[C@@H]1O)P(=O)(O)O` (single isomer, unassigned) was tested, and the IC50 was 2470 nM and 2950 nM.
For `CCOC(=O)C(OC[C@H]1O[C@@H](n2cnc3c(N)nc(Cl)nc32)[C@@H](F)[C@@H]1O)P(=O)(O)O` (single isomer, unassigned), the IC50 was 2790 nM and 8910 nM.
For `CCOC(=O)C(Cc1ccc(-c2ccccc2)cc1)(OC[C@H]1O[C@@H](n2cnc3c(N)nc(Cl)nc32)[C@@H](F)[C@@H]1O)C(=O)O` (single isomer, unassigned), the IC50 was 7260 nM and 8260 nM.
